Measurements: US11174268B2, “Benzenesulfonamide compouds and their use as therapeutic agents” (Xenon Pharmaceuticals Inc., priority 2016, dated 2021)
Where a name gives a salt, the structure may show the parent alone. Read-outs that look alike come from different tables or passages of the source.

Legend:
NaV1.1 [1] = biological target: T1, NaV1.1 (Homo sapiens (Human), UniProt P35498); experiment: Sodium Influx Assay (Flux), NaV1.1; type: cell-based; settings: Trex HEK293 cells, ANG2 dye, inactivated state;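 further: channels co-expressed with human β1 subunit and held open by modulators, cells exposed to compounds for one hour at room temperature, IC50 from percent inhibition of influx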
NaV1.6 [2] = biological target: T2, NaV1.6 (Homo sapiens (Human), UniProt Q9UQD0); experiment: Sodium Influx Assay (Flux), NaV1.6; type: cell-based; settings: Trex HEK293 cells, ANG2 dye, inactivated state;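 further: Tetracycline-induced cells, compounds applied for one hour at room temperature with modulators holding channels open, IC50 from percent inhibition of sodium influx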
T2 sequence (Q9UQD0 whole entry): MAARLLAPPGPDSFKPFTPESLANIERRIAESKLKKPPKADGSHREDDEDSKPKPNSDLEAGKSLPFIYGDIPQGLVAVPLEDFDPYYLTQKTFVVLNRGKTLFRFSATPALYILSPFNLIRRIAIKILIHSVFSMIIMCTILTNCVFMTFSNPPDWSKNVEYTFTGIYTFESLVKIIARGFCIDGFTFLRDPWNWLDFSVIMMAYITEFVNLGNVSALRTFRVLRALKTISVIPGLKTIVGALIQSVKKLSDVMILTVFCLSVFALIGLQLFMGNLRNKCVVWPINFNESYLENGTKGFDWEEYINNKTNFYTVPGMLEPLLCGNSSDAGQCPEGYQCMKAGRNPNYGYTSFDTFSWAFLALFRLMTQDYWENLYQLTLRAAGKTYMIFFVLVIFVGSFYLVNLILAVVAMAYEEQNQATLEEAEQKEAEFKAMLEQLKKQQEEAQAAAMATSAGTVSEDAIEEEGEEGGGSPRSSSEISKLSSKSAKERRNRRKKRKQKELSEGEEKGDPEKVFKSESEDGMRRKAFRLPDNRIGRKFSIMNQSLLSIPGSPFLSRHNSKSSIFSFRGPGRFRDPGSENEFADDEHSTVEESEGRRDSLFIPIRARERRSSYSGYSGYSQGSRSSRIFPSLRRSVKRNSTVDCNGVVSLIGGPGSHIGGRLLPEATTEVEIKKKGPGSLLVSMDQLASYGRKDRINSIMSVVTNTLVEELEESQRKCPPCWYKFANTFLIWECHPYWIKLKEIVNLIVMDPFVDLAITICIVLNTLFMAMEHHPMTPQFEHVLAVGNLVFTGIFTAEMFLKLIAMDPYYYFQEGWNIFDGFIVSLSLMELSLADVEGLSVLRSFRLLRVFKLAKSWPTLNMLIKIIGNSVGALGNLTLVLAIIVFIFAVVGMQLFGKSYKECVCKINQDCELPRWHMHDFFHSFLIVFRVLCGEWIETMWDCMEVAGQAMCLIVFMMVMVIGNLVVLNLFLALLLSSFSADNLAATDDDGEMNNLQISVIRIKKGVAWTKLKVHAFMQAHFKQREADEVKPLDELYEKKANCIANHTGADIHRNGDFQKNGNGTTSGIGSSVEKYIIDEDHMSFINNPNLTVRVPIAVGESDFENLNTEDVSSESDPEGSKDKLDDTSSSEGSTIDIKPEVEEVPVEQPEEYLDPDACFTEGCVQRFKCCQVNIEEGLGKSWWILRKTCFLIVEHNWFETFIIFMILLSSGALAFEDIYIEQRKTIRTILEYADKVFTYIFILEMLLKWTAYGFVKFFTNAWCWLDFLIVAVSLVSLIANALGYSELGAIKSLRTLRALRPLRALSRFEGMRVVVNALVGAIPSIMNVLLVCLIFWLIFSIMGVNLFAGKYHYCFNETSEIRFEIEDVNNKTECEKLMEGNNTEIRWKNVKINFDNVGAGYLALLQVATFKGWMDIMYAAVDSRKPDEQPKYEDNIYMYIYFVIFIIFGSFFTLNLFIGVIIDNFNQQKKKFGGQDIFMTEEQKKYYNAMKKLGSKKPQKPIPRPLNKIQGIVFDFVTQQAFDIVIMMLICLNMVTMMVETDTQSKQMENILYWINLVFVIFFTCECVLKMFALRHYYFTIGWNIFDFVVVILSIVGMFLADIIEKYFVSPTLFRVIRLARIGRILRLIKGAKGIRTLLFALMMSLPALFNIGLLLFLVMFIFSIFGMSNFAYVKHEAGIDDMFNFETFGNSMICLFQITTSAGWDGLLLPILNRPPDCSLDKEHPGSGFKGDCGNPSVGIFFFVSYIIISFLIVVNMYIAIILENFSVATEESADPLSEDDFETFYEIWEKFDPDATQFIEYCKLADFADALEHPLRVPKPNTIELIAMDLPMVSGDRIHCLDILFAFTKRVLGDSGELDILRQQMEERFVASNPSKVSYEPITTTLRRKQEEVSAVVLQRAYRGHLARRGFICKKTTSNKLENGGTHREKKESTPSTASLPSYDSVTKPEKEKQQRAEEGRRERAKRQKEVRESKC

NaV1.6 [3] = biological target: T2, NaV1.6; experiment: Electrophysiological Assay (EP), patch voltage clamp, NaV1.6; type: cell-based; settings: HEK-293 cells, whole-cell patch clamp;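 further: sodium current recorded at ambient temperature, channels held inactivated then briefly repolarized to −150 mV for 20 ms before a test pulse, control currents in 0.5% DMSO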
NaV1.5 = NaV1.5 (Homo sapiens (Human), UniProt Q14524); experiment: Sodium Influx Assay (Flux), NaV1.5
Chain of NaV1.5 (Q14524 other isoform, or with tags, fused parts or gaps): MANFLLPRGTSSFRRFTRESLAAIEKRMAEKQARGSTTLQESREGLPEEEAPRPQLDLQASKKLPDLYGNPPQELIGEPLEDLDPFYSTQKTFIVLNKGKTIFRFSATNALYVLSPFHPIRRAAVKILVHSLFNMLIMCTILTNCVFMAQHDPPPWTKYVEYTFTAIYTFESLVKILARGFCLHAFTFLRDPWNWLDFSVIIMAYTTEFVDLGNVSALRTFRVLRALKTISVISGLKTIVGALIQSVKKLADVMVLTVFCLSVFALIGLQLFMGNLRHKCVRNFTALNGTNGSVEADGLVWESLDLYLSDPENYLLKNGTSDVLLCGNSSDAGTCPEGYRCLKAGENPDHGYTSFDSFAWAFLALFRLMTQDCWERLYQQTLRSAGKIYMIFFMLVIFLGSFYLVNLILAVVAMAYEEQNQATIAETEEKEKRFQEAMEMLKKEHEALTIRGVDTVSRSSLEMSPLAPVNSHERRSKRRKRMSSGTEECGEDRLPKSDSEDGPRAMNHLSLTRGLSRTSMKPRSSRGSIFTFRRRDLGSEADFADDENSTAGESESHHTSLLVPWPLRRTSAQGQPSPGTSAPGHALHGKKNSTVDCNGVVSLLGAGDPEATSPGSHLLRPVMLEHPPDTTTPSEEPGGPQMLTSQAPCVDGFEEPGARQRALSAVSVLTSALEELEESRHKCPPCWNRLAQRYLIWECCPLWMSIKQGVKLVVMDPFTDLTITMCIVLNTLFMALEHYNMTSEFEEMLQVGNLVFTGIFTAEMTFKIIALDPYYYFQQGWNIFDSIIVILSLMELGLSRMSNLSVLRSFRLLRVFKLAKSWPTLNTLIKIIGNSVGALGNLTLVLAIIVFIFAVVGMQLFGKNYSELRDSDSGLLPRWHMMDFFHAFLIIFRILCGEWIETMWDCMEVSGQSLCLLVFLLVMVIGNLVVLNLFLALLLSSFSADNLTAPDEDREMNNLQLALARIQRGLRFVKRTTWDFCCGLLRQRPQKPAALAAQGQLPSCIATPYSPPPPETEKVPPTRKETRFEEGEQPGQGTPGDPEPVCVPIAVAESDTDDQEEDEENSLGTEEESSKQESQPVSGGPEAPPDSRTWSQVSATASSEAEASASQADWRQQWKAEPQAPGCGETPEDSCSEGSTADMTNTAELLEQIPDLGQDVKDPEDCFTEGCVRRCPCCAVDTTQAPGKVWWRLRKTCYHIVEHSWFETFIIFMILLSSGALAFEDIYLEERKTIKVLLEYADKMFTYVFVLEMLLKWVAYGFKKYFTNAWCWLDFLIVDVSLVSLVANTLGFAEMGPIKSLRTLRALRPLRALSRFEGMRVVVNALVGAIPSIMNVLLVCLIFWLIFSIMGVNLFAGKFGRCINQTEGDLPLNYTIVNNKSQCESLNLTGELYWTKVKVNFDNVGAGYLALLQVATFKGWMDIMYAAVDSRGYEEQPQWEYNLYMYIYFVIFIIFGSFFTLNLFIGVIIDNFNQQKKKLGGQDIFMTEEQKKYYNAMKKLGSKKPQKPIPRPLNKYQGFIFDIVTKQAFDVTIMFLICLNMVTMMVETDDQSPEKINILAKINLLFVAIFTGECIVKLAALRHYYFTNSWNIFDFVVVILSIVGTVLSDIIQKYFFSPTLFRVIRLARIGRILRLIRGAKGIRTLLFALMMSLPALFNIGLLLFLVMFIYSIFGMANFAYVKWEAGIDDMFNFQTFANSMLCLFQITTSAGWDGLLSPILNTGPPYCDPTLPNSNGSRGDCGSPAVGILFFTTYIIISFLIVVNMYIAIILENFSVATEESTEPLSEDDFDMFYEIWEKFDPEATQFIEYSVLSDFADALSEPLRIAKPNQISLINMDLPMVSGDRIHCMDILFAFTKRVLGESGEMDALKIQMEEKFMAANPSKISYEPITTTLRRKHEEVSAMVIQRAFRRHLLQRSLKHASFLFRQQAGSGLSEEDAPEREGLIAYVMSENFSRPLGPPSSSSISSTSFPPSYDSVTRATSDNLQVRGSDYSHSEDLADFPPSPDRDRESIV

NaV1.1 [4] = biological target: T1, NaV1.1; experiment: Electrophysiological Assay (EP), patch voltage clamp, NaV1.1; type: cell-based; settings: HEK-293 cells, whole-cell patch clamp;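 further: sodium current block measured at ambient temperature, holding at fully inactivating potential, 20 ms repolarization to −150 mV before test pulse, versus 0.5% DMSO control currents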
[5] = read-out: Flux NaV1.5 IC50, Trex HEK293 cells, ANG2 dye, inactivated state

Row | IC50 (NaV1.1 [1]) [µM] | IC50 (NaV1.6 [2]) [µM] | IC50 (NaV1.6 [3]) [µM] | IC50 (NaV1.1 [4]) [µM] | SMILES | IC50 (NaV1.5; [5]) [µM] | IC50 (NaV1.5) [µM]
1 | 6.36 | 0.418 | 0.122 | 10 | O=S(=O)(Nc1cscn1)c1ccc(NCc2c(F)cccc2CN2CC(F)C2)c(Cl)c1F [Example 133, 3-chloro-2-fluoro-4-((2-fluoro-6-((3-fluoroazetidin-1-yl)methyl)benzyl)amino)-N-(thiazol-4-yl)benzenesulfonamide] | 9.21 | 
2 | 30 | 0.588 | 0.353 | 10 | Cc1cc(S(=O)(=O)Nc2cscn2)c(F)cc1NCc1c(F)cccc1CN1CC(F)C1 [Example 137, 2-fluoro-4-((2-fluoro-6-((3-fluoroazetidin-1-yl)methyl)benzyl)amino)-5-methyl-N-(thiazol-4-yl)benzenesulfonamide] | 30 | 
3 | 5.76 | 0.151 | 0.043 | 10 | O=S(=O)(Nc1cccc(F)n1)c1cc(Cl)c(NCc2c(F)cccc2CN2CCC2)cc1F [Example 138, 4-((2-(azetidin-1-ylmethyl)-6-fluorobenzyl)amino)-5-chloro-2-fluoro-N-(6-fluoropyridin-2-yl)benzenesulfonamide] | 9.85 | 
4 | 16.2 | 0.072 | 0.015 | 10 | O=S(=O)(Nc1cscn1)c1ccc(NCc2c(F)cccc2CN2CCC2)c(Cl)c1F [Example 192, 4-((2-(azetidin-1-ylmethyl)-6-fluorobenzyl)amino)-3-chloro-2-fluoro-N-(thiazol-4-yl)benzenesulfonamide formate] | 8.51 | 
5 | 8.54 | 0.227 | 0.043 | 10 | O=S(=O)(Nc1cscn1)c1c(F)cc(NCc2c(F)cccc2CN2CC(F)C2)cc1F [Example 194, 2,6-difluoro-4-((2-fluoro-6-((3-fluoroazetidin-1-yl)methyl)benzyl)amino)-N-(thiazol-4-yl)benzenesulfonamide formate] | 30 | 
6 | 27.3 | 0.317 | 0.076 | 10 | COc1cccc(CN2CCC2)c1CNc1cc(F)c(S(=O)(=O)Nc2cscn2)c(F)c1 [Example 209, 4-((2-(azetidin-1-ylmethyl)-6-methoxybenzyl)amino)-2,6-difluoro-N-(thiazol-4-yl)benzenesulfonamide 2,2,2-trifluoroacetate] | 30 | 
7 | 25.3 | 6.16 | 0.409 | 10 | O=S(=O)(Nc1cscn1)c1cc(Cl)c(NCc2c(F)cccc2CN2CC(F)C2)cc1F [Example 247, 5-chloro-2-fluoro-4-((2-fluoro-6-((3-fluoroazetidin-1-yl)methyl)benzyl)amino)-N-(thiazol-4-yl)benzenesulfonamide] | 30 | 
8 | 11.8 | 0.18 | 0.036 | 10 | O=S(=O)(Nc1cscn1)c1cc(Cl)c(NCc2c(F)ccc(F)c2CN2CCC2)cc1F [Example 288, 4-((2-(Azetidin-1-ylmethyl)-3,6-difluorobenzyl)amino)-5-chloro-2-fluoro-N-(thiazol-4-yl)benzenesulfonamide hydrochloride] | 17.9 | 
9 | 6.02 | 0.101 | 0.011 | 10 | O=S(=O)(Nc1cscn1)c1c(F)cc(NCc2c(Cl)cccc2CN2CCC2)cc1F [Example 290, 4-((2-(azetidin-1-ylmethyl)-6-chlorobenzyl)amino)-2,6-difluoro-N-(thiazol-4-yl)benzenesulfonamide 2,2,2-trifluoroacetate] | 25.1 | 

More lines, now with the values behind:

Row | SMILES | IC50 (NaV1.1 [1]) [µM] | IC50 (NaV1.6 [2]) [µM] | IC50 (NaV1.6 [3]) [µM] | IC50 (NaV1.1 [4]) [µM] | IC50 (NaV1.5; [5]) [µM] | IC50 (NaV1.5) [µM]
10 | O=S(=O)(Nc1nccs1)c1cc(Cl)c(OCc2ccccc2CN2CCC2)cc1F [Example 136, 4-((2-(azetidin-1-ylmethyl)benzyl)oxy)-5-chloro-2-fluoro-N-(thiazol-2-yl)benzenesulfonamide] | 19.6 | 0.384 | 0.041 | 10 | 23.7 | 
11 | CCC(Nc1cc(F)c(S(=O)(=O)Nc2nccs2)cc1Cl)c1ccccc1 (centres unmarked) [Example 141, 5-chloro-2-fluoro-4-(1-phenylpropylamino)-N-(thiazol-2-yl)benzenesulfonamide] | 3.33 | 0.479 | 0.031 | 0.277 |  | 21
12 | CC(C)CC(Nc1cc(F)c(S(=O)(=O)Nc2nccs2)cc1Cl)c1ccccc1 (centres unmarked) [Example 143, 5-chloro-2-fluoro-4-(3-methyl-1-phenylbutylamino)-N-(thiazol-2-yl)benzenesulfonamide] | 2.49 | 0.528 | 0.027 | 0.159 |  | 7.01
13 | O=S(=O)(Nc1cscn1)c1c(F)cc(NCc2c(F)cccc2CN2CC3(CCO3)C2)cc1F [Example 156, 4-((2-((1-oxa-6-azaspiro[3.3]heptan-6-yl)methyl)-6-fluorobenzyl)amino)-2,6-difluoro-N-(thiazol-4-yl)benzenesulfonamide formate] | 24.8 | 0.146 | 0.022 | 10 | 30 | 
14 | C[C@H](Nc1ccc(S(=O)(=O)Nc2ccncn2)c(F)c1Cl)c1ccccc1Cl [Example 191, (S)-3-chloro-4-((1-(2-chlorophenyl)ethyl)amino)-2-fluoro-N-(pyrimidin-4-yl)benzenesulfonamide] | 18.2 | 0.244 | 0.112 | 10 | 20 | 
15 | C[C@H](Nc1cc(F)c(S(=O)(=O)Nc2ccncn2)c(F)c1)c1cc(Cl)ccc1F [Example 206, (S)-4-((1-(5-chloro-2-fluorophenyl)ethyl)amino)-2,6-difluoro-N-(pyrimidin-4-yl)benzenesulfonamide 2,2,2-trifluoroacetate] | 7.05 | 0.448 | 0.076 | 10 | 30 | 
16 | C[C@H](Nc1cc(F)c(S(=O)(=O)Nc2cscn2)c(F)c1)c1cc(Cl)ccc1F [Example 207, (S)-4-((1-(5-chloro-2-fluorophenyl)ethyl)amino)-2,6-difluoro-N-(thiazol-4-yl)benzenesulfonamide 2,2,2-trifluoroacetate] | 4.38 | 0.413 | 0.121 | 8.13 | 9.57 | 
17 | O=S(=O)(Nc1cscn1)c1cc(Cl)c(NC2(c3cc(F)ccc3F)CC2)cc1F [Example 225, 5-chloro-4-((1-(2,5-difluorophenyl)cyclopropyl)amino)-2-fluoro-N-(thiazol-4-yl)benzenesulfonamide] | 9.82 | 2 | 0.742 | 10 | 4.47 | 
18 | C[C@H](Nc1cc(F)c(S(=O)(=O)Nc2cnccn2)cc1Cl)c1cc(Cl)ccc1F [Example 243] | ≥ 30 | 8.68 | 6.25 | 10 |  | ≥ 30
19 | CC[C@H](Nc1cc(F)c(S(=O)(=O)Nc2ncc(F)s2)cc1Cl)c1ccccc1 [Example 265, (S)-5-chloro-2-fluoro-N-(5-fluorothiazol-2-yl)-4-((1-phenylpropyl)amino)benzenesulfonamide] | 0.794 | 0.194 | 0.018 | 0.05 | 12.5 | 
20 | C[C@H](Nc1cc(F)c(S(=O)(=O)Nc2ncc(F)s2)cc1Cl)c1ccccc1F [Example 266, (S)-5-chloro-2-fluoro-4-((1-(2-fluorophenyl)ethyl)amino)-N-(5-fluorothiazol-2-yl)benzenesulfonamide] | 0.767 | 0.117 | 0.015 | 0.133 | 5.44 | 
21 | C[C@H](Nc1cc(F)c(S(=O)(=O)Nc2nccs2)cc1Cl)c1cc(F)ccc1F [Example 268, (S)-5-chloro-4-((1-(2,5-difluorophenyl)ethyl)amino)-2-fluoro-N-(thiazol-2-yl)benzenesulfonamide] | 0.388 | 0.035 | 0.01 | 0.332 | 3.68 | 
22 | O=S(=O)(Nc1ccncn1)c1cc(Cl)c(N[C@H](c2cc(Cl)ccc2F)C(F)(F)F)cc1F [Example 270, (R)-5-chloro-4-((1-(5-chloro-2-fluorophenyl)-2,2,2-trifluoroethyl)amino)-2-fluoro-N-(pyrimidin-4-yl)benzenesulfonamide] | 12.5 | 0.213 | 0.018 | 10 | 11 | 
23 | C[C@H](Nc1ccc(S(=O)(=O)Nc2ccncn2)cc1C(F)(F)F)c1cc(F)ccc1F [Example 273, (S)-4-((1-(2,5-difluorophenyl)ethyl)amino)-N-(pyrimidin-4-yl)-3-(trifluoromethyl)benzenesulfonamide] | 30 | 0.896 | 0.122 | 10 | 30 | 
24 | Cc1cc(S(=O)(=O)Nc2ccncn2)c(F)cc1N[C@@H](C)c1cc(Cl)ccc1F [Example 275, (S)-4-((1-(5-chloro-2-fluorophenyl)ethyl)amino)-2-fluoro-5-methyl-N-(pyrimidin-4-yl)benzenesulfonamide] | 5.33 | 0.174 | 0.025 | 4.85 | 30 | 
25 | C[C@H](Nc1cc(F)c(S(=O)(=O)Nc2ncco2)cc1Cl)c1cc(F)ccc1F [Example 287, (S)-5-Chloro-4-((1-(2,5-difluorophenyl)ethyl)amino)-2-fluoro-N-(oxazol-2-yl)benzenesulfonamide] | 25.2 | 1.53 | 0.47 | 10 | 30 | 
